From patent US12558340B2, “ANAVEX2-73 for the treatment of genetic neurodevelopmental disorders” (ANAVEX LIFE SCIENCES CORP., priority 2019, dated 2026)

Experiments:
[1] = test system: subject diagnosed with Rett Syndrome; assay: Example 6: liquid formulation given to a subject with Rett Syndrome; type: in vivo, human; settings: 1 mL of a liquid formulation (0.2 mg/mL)
Protocol: A subject, diagnosed with Rett Syndrome is administered 1 mL of a liquid formulation (0.2 mg/mL).

[2] = test system: Fmr1 knockout 2 mice, KO2; settings: 1 mg/kg IP twice daily for two weeks; cited from earlier work
[3] = test system: female subjects diagnosed with Rett Syndrome; assay: Example 5: 7-week daily treatment of Rett Syndrome subjects (RSBQ, CGI-I); type: in vivo, human
Protocol: Six female subjects ranging from 16 to 22 years of age diagnosed with Rett Syndrome were administered 5 mg ANAVEX2-73 liquid formulation (1 m_of a 5 mg/mI_ANAVEX2-73 solution) daily for a total daily dose of […], over a period of 7 weeks.
(§1) For efficacy, the following parameters were measured in the female subjects: Rett Syndrome Behavior Questionare (RSBQ), Clinical Global Impressions (CGI-I), hand behaviors (RSBQ), breathing problems (RSBQ), waking during sleep (RSBQ), and glutamate biomarker, and GABA biomarkers.
Evaluation of the efficacy was measured as a comparison from baseline (week 0), week 4, and to end of treatment (week 7). Blood plasma samples were analyzed at week 0 and at week 7 to measure the levels of glutamate and GABA biomarkers. The evaluation of efficacy used a two-tailed statistical analysis.

physchem = type: physicochemical
From the text: Dosage formulations used in the disclosed methods comprise a therapeutically effective amount of ANAVEX2-73, the crystalline HCI salt of tetrahydro-N,N-dimethyl-2,2-diphenyl-3-furanmethanamine, or tetrahydro-N,N-dimethyl-2,2-diphenyl-3-furanmethanamine hydrochloride (IUPAC name: 1-(2,2-diphenyloxolan-3-yl)-A/,A/-dimethylmethanamine hydrochloride). […] Thus ANAVEX2-73 (used herein to refer to the HCI salt or the free base) is highly amenable to incorporation in the dosage formulations disclosed herein. For example, ANAVEX2-73 as either the HCI salt or the free base has a relatively low molecular weight (<400 Da), and is thus well suited for transmucosal or transdermal delivery, or rapid oral delivery. ANAVEX2-73 has a pKa around 8-9, which also makes it well-suited for transmucosal delivery. Therapeutically effective doses of ANAVEX2-73 are well suited for various thin film formulations, including oral and transdermal thin film formulations.

BDNF = settings: 1 mg/kg IP twice daily for two weeks; cited from earlier work
healthy male volunteers = settings: cited from earlier work
[4] = test system: glutamate biomarker in plasma; assay: Example 5: glutamate biomarker in plasma of Rett Syndrome subjects; type: in vivo, human; settings: week 0 vs week 7; Wilcoxon p (2-tailed)=0.046
From the text: In one aspect, the method further comprises measuring, or having measured or obtained a baseline biomarker level in the subject prior to treatment with ANAVEX2-73 as described herein, wherein the biomarker comprises plasma glutamate, gamma aminobutyric acid (GABA), PI3K, pAkt, mTOR, pMAPK, pERK, or any combinations thereof, and measuring or having measured or obtained at least a second level of the biomarker following a period of treatment with ANAVEX2-73 as described herein. […]
as §1
Evaluation of the efficacy was measured as a comparison from baseline (week 0), week 4, and to end of treatment (week 7). Blood plasma samples were analyzed at week 0 and at week 7 to measure the levels of glutamate and GABA biomarkers. […]

pERK = pERK levels in peripheral lymphocytes of Fmr1 KO2 mice (flow cytometry); type: in vivo; settings: 1 mg/kg IP twice daily for two weeks, 7 per group, t-test p=0.046, post-hoc p=0.096
Protocol: (§2) In the aforementioned study by Reyes et al., ANAVEX2-73 or saline were administered twice daily at a dose of 1 mg/kg IP, to 2-month-old Fmr1 KO2 mice and wild type counterparts (N=10 mice per group, 40 mice total; for blood sample analyses: 5-7 mice per group) for two weeks. Brain samples were harvested for biochemical and molecular studies, blood samples were collected at baseline and on the last day of the behavioral assessments. Complementary cell signaling analyses were also conducted. These analyses were important because of their relevance to both preclinical and clinical research in FXS. Peripheral lymphocytes were isolated and stimulated with Phorbol-12-Myristate-13-Acetate in a buffer without phosphatase inhibitors but with U0126 (inhibitor of MAPK kinase). […] Resuspended cells were analyzed in a Coulter XL3 flow cytometer. […] Levels of pAkt and pERK were first characterized in terms of distribution, by the Shapiro-Wilk test of normality and Levene's and Bartlett's tests, which determined that all data were distributed normally and had equal variances. […] Once a significant difference was found, a two-way univariate ANOVA with genotype and treatment as between-subject factors, followed by a Tukey's post-hoc test, evaluated the differences between drug-treated and vehicle-treated WT and Fmr1 KO2 mice. […]

[5] = test system: subject diagnosed with Rett Syndrome; assay: Example 1: liquid formulation given to a subject with Rett Syndrome; type: in vivo, human; settings: 5 mL of a liquid formulation (0.2 mg/mL)
Protocol: A subject diagnosed with Rett Syndrome was administered 5 mL of a liquid formulation (0.2 mg/mL).

pAkt = pAkt levels in peripheral lymphocytes of Fmr1 KO2 mice (flow cytometry); type: in vivo
Protocol: as §2

In the case of `CN(C)CC1CCOC1(c1ccccc1)c1ccccc1.Cl` (stereo not drawn) [ANAVEX2-73, tetrahydro-N,N-dimethyl-2,2-diphenyl-3-furanmethanamine hydrochloride], the CGI-I index [1] is listed as “improvement”, the “Rett Syndrome Behavior Questionnaire (RSBQ)” value [1] is listed as “improvement” and the “three neurobehavioral phenotypes (open field test, contextual fear conditioning, marble-burying)” value [2] is listed as “marked improvement or normalization”. For the same molecule, the “RSBQ and CGI-I” value ([3]; after 7 weeks, p=0.003) was “reduction”, the “improvement in the RSBQ (total score)” value ([3]; all six subjects, 5 mg liquid formulation daily, week 0 vs week 7) was “over 30%” and the “breathing problems (RSBQ)” value ([3]; compared to week 0, p=0.042) was “improvement”. The “hand behaviors (RSBQ)” value ([3]; compared to week 0, p=0.042) was “improvement”, the “waking during sleep (RSBQ)” value ([3]; compared to week 0, p=0.042) was “improvement” and the chemical stability (physchem) was “excellent”. The pKa (physchem) was 8 to 9, the “solubility in organic solvents” value (physchem) was “soluble in almost all organic solvents” and the water solubility (physchem) was “high”. For the same molecule, the “BDNF levels in the hippocampus” value (BDNF) was “normalized”, the safety and tolerability (healthy male volunteers; ascending single oral doses of 1, 10, 30, 40, 50 and 55 mg, healthy subjects) was “safe and well tolerated” and the observed adverse events (healthy male volunteers; at highest doses) was “only moderate and reversible dizziness and headache”. For the same molecule, the “minimum intolerable dose (MID)” value (healthy male volunteers; human, in vivo, po) was 60 mg, the serious adverse events (healthy male volunteers; single ascending oral doses) was “No serious adverse events occurred” and the “maximum tolerable dose (MTD)” value (healthy male volunteers; single oral dose, based on frequency and intensity of adverse events) was 55 mg. For the same molecule, the “levels of glutamate biomarker in plasma” value [4] was “decreased significantly”, the “pERK levels, drug-treated vs vehicle-treated Fmr1 KO2 mice” value (pERK) was “mildly reduced” and the cognition [5] was “improvement”. For the same molecule, the motor skills [5] was “improvement”, the “pAkt levels, drug-treated vs vehicle-treated Fmr1 KO2 mice” value (pAkt; 1 mg/kg IP twice daily for two weeks, 5 animals per group, p=0.01) was “significantly lower” and the “pAkt levels, drug-treated mutant mice vs vehicle-treated WT mice” value (pAkt; ANOVA) was “comparable”.
